26 compounds from paper PMC10674894 (Viruses, 2023) can be followed below.

One series relates to CHIKV DRDE-07. Nature of the series: In vitro screening against CHIKV (CPE inhibition and MTT cell viability). Type of series: cell-based, chikungunya virus. The note with it: Table S1, CHIKV-infected Vero cells; for % Cell viability: 72 hpi, MTT assay; for CPE: arbitrary score of cytopathic effect at >48 hpi.
The test system of another series is Vero cells. Nature of the series: Cytotoxicity MTT assay in Vero cells (MNTD, CC50). Type of series: cell-based, African green monkey. As to conditions: Table S1; Vero cells.

`COc1ccc(C2NC(=O)NC(C)=C2C(=O)OCCc2ccccc2)cc1` (stereo not drawn) [DCR97, 2-phenylethyl 4-(4-methoxyphenyl)-6-methyl-2-oxo-1,2,3,4-tetrahydropyrimidine-5-carboxylate]: in the series on CHIKV DRDE-07, the “% Cell viability” value is listed as 11.19% and the CPE result is on record as “++++ (>60% (++++))”. The compound also returned an MNTD in the series with Vero cells of 170.57 µM.

`C=CCOC(=O)C1=C(C)NC(=O)NC1c1ccc(OC)cc1` (stereo not drawn) [DCR98, prop-2-en-1-yl 4-(4-methoxyphenyl)-6-methyl-2-oxo-1,2,3,4-tetrahydropyrimidine-5-carboxylate]: in the series with CHIKV DRDE-07, the “% Cell viability” value is 12.66% and the CPE entry is given as “++++ (>60% (++++))”. In addition, the MNTD with Vero cells turned out to be 413.46 µM.

For the compound `COc1ccc(C2NC(=O)NC(C)=C2C(=O)OCC(C)C)cc1` (stereo not drawn) [DCR99, 2-methylpropyl 4-(4-methoxyphenyl)-6-methyl-2-oxo-1,2,3,4-tetrahydropyrimidine-5-carboxylate], in the series on CHIKV DRDE-07, the “% Cell viability” value amounted to 11.29% and the CPE entry is reported as “++++ (>60% (++++))”. Besides, the MNTD with Vero cells came to 392.64 µM.

With `COc1ccc(C2NC(=O)NC(C)=C2C(=O)OCc2ccc(Cl)cc2)cc1` (stereo not drawn) [DCR100, (4-chlorophenyl)methyl 4-(4-methoxyphenyl)-6-methyl-2-oxo-1,2,3,4-tetrahydropyrimidine-5-carboxylate], in the series with CHIKV DRDE-07, the “% Cell viability” value was found to be 12.84% and the CPE result is “++++ (>60% (++++))”. In addition, in the series with Vero cells, the MNTD came to 323.15 µM.

`COc1ccc(COC(=O)C2=C(C)NC(=O)NC2c2ccc(OC)cc2)cc1` (stereo not drawn) [DCR101, 4-methoxybenzyl 4-(4-methoxyphenyl)-6-methyl-2-oxo-1,2,3,4-tetrahydropyrimidine-5-carboxylate]: in the series on CHIKV DRDE-07, the “% Cell viability” value is on record as 7.02% and the CPE entry is listed as “++++ (>60% (++++))”. The MNTD with Vero cells came out at 250 µM.

Take `COc1ccc(C2NC(=O)NC(C)=C2C(=O)OCc2ccccc2)cc1` (stereo not drawn) [DCR102, benzyl 4-(4-methoxyphenyl)-6-methyl-2-oxo-1,2,3,4-tetrahydropyrimidine-5-carboxylate]: in the series on CHIKV DRDE-07, the “% Cell viability” value was 8.11% and the CPE entry is given as “++++ (>60% (++++))”. In addition, the MNTD with Vero cells stood at 250 µM.

`C=C(C)CCOC(=O)C1=C(C)NC(=O)NC1c1ccc(OC)cc1` (stereo not drawn) [DCR103, 3-methylbut-3-en-1-yl 4-(4-methoxyphenyl)-6-methyl-2-oxo-1,2,3,4-tetrahydropyrimidine-5-carboxylate]: in the series on CHIKV DRDE-07, the “% Cell viability” value stood at 21.11% and the CPE result is given as “++++ (>60% (++++))”. Also, in the series on Vero cells, the MNTD is 250 µM.

As to `CC1=C(C(=O)OCC[N+](C)(C)C)C(c2ccc([N+](=O)[O-])cc2)NC(=O)N1` (stereo not drawn) [DCR104, N,N,N-trimethyl-2-({[6-methyl-4-(4-nitrophenyl)-2-oxo-1,2,3,4-tetrahydropyrimidin-5-yl]carbonyl}oxy)ethanaminium], in the series on CHIKV DRDE-07, the “% Cell viability” value was 9.09% and the CPE result is “++++ (>60% (++++))”. Moreover, the MNTD with Vero cells turned out to be 125 µM.

For the compound `CC1=C(C(=O)OCC[N+](C)(C)C)C(c2ccc(C)cc2)NC(=O)N1` (stereo not drawn) [DCR105, N,N,N-trimethyl-2-({[6-methyl-4-(4-methylphenyl)-2-oxo-1,2,3,4-tetrahydropyrimidin-5-yl]carbonyl}oxy)ethanaminium], in the series with CHIKV DRDE-07, the “% Cell viability” value worked out at 2.45% and the CPE result was “++++ (>60% (++++))”. Further, the MNTD in the series with Vero cells was determined as 125 µM.

As to `CC1=C(C(=O)OCC[N+](C)(C)C)C(c2ccc(Cl)cc2)NC(=O)N1` (stereo not drawn) [DCR106, 2-({[4-(4-chlorophenyl)-6-methyl-2-oxo-1,2,3,4-tetrahydropyrimidin-5-yl]carbonyl}oxy)-N,N,N-trimethylethanaminium], in the series with CHIKV DRDE-07, the “% Cell viability” value is on record as 3.33% and the CPE entry was “++++ (>60% (++++))”. In the series on Vero cells, this compound gave an MNTD of 62.5 µM.

Regarding `COc1ccc(C2NC(=O)NC(C)=C2C(=O)OCC[N+](C)(C)C)cc1` (stereo not drawn) [DCR107, {2‐[4‐(4‐methoxyphenyl)‐6‐methyl‐2‐oxo‐1,2,3,4‐tetrahydropyrimidine‐5‐carbonyloxy]ethyl}trimethylazanium], in the series with CHIKV DRDE-07, the “% Cell viability” value is given as 13.22% and the CPE result is “++++ (>60% (++++))”. In the series on Vero cells, this compound registered an MNTD of 62.5 µM.

On to `CC1=C(C(=O)OCCN(C)C)C(c2ccc(Cl)cc2)NC(=O)N1` (stereo not drawn) [DCR108, 2-(dimethylamino)ethyl 4-(4-chlorophenyl)-6-methyl-2-oxo-1,2,3,4-tetrahydropyrimidine-5-carboxylate], for which, in the series with CHIKV DRDE-07, the “% Cell viability” value is reported as 13.99% and the CPE result was “++++ (>60% (++++))”. This compound also registered an MNTD with Vero cells of 62.5 µM.

Regarding `CC1=C(C(=O)OCCN(C)C)C(c2ccc(N(C)C)cc2)NC(=O)N1` (stereo not drawn) [DCR109, 2‐(dimethylamino)ethyl 4‐[4‐(dimethylamino)phenyl]‐6‐methyl‐2‐oxo‐1,2,3,4‐tetrahydropyrimidine‐5‐carboxylate], in the series on CHIKV DRDE-07, the “% Cell viability” value was determined as 15.11% and the CPE entry was “++++ (>60% (++++))”. The compound also returned an MNTD in the series on Vero cells of 62.5 µM.

For `CC1=C(C(=O)OCCN(C)C)C(c2ccc(O)cc2)NC(=O)N1` (stereo not drawn) [DCR110, 2-(dimethylamino)ethyl 4-(4-hydroxyphenyl)-6-methyl-2-oxo-1,2,3,4-tetrahydropyrimidine-5-carboxylate], in the series on CHIKV DRDE-07, the “% Cell viability” value came to 12.01% and the CPE result is given as “++++ (>60% (++++))”. Further, in the series with Vero cells, the MNTD turned out to be 62.5 µM.

In the case of `CC1=C(C(=O)OCCN(C)C)C(c2ccc(N(C)C)cc2)NC(=S)N1` (stereo not drawn) [DCR111, 2‐(dimethylamino)ethyl 4‐[4‐(dimethylamino)phenyl]‐6‐methyl‐2‐sulfanylidene‐1,2,3,4‐tetrahydropyrimidine‐5‐carboxylate], in the series with CHIKV DRDE-07, the “% Cell viability” value was 10.08% and the CPE entry was “++++ (>60% (++++))”. In addition, the MNTD with Vero cells was 62.5 µM.

As to `COc1ccc(C2NC(=O)NC(C)=C2C(=O)OCCN(C)C)cc1` (stereo not drawn) [DCR112, 2-(dimethylamino)ethyl 4-(4-methoxyphenyl)-6-methyl-2-oxo-1,2,3,4-tetrahydropyrimidine-5-carboxylate], in the series with CHIKV DRDE-07, the “% Cell viability” value is 2.09% and the CPE entry was “++++ (>60% (++++))”. This compound also showed an MNTD with Vero cells of 62.5 µM.

With `COc1ccc(C2c3c(ccc4ccccc34)Oc3ccc4ccccc4c32)cc1` [DCR113, 2‐(4‐methoxyphenyl)‐13‐oxapentacyclo[12.8.0.0³,¹².0⁴,⁹.0¹⁷,²²]docosa‐1(14),3,5,7,9,11,15,17(22),18,20‐decaene], in the series with CHIKV DRDE-07, the “% Cell viability” value is 5.04% and the CPE result is on record as “++++ (>60% (++++))”. In the series with Vero cells, this compound came in with an MNTD of 31.25 µM.

Regarding `CCOc1ccc(C2c3c(ccc4ccccc34)Oc3ccc4ccccc4c32)cc1` [DCR114, 2‐(4‐ethoxyphenyl)‐13‐oxapentacyclo[12.8.0.0³,¹².0⁴,⁹.0¹⁷,²²]docosa‐1(14),3,5,7,9,11,15,17(22),18,20‐decaene], in the series with CHIKV DRDE-07, the “% Cell viability” value was 4.05% and the CPE entry was “++++ (>60% (++++))”. The same compound yielded an MNTD in the series with Vero cells of 31.25 µM.

Consider `Clc1ccc(C2c3c(ccc4ccccc34)Oc3ccc4ccccc4c32)cc1` [DCR115, 2‐(4‐chlorophenyl)‐13‐oxapentacyclo[12.8.0.0³,¹².0⁴,⁹.0¹⁷,²²]docosa‐1(14),3,5,7,9,11,15,17(22),18,20‐decaene], for which, in the series with CHIKV DRDE-07, the “% Cell viability” value is listed as 17.1% and the CPE result is “++++ (>60% (++++))”. Also, the MNTD in the series with Vero cells is reported as 125 µM.

On to `Clc1cccc(C2c3c(ccc4ccccc34)Oc3ccc4ccccc4c32)c1` [DCR116, 2‐(3‐chlorophenyl)‐13‐oxapentacyclo[12.8.0.0³,¹².0⁴,⁹.0¹⁷,²²]docosa‐1(14),3,5,7,9,11,15,17(22),18,20‐decaene], for which, in the series on CHIKV DRDE-07, the “% Cell viability” value came out at 10.84% and the CPE result was “++++ (>60% (++++))”. The compound further displayed an MNTD in the series on Vero cells of 31.25 µM.

With `Fc1ccc(C2c3c(ccc4ccccc34)Oc3ccc4ccccc4c32)cc1` [DCR117, 2‐(4‐fluorophenyl)‐13‐oxapentacyclo[12.8.0.0³,¹².0⁴,⁹.0¹⁷,²²]docosa‐1(14),3,5,7,9,11,15,17(22),18,20‐decaene], in the series on CHIKV DRDE-07, the “% Cell viability” value was determined as 14.01% and the CPE entry is reported as “++++ (>60% (++++))”. The compound also displayed an MNTD with Vero cells of 125 µM.

With `CCc1ccc(C2c3c(ccc4ccccc34)Oc3ccc4ccccc4c32)cc1` [DCR118, 2‐(4‐ethylphenyl)‐13‐oxapentacyclo[12.8.0.0³,¹².0⁴,⁹.0¹⁷,²²]docosa‐1(14),3,5,7,9,11,15,17(22),18,20‐decaene], in the series on CHIKV DRDE-07, the “% Cell viability” value was 14.23% and the CPE result is listed as “++++ (>60% (++++))”. This compound also yielded an MNTD in the series with Vero cells of 31.25 µM.

For `Fc1cccc(C2c3c(ccc4ccccc34)Oc3ccc4ccccc4c32)c1` [DCR119, 2‐(3‐fluorophenyl)‐13‐oxapentacyclo[12.8.0.0³,¹².0⁴,⁹.0¹⁷,²²]docosa‐1(14),3,5,7,9,11,15,17(22),18,20‐decaene], in the series on CHIKV DRDE-07, the “% Cell viability” value amounted to 18.74% and the CPE result is listed as “++++ (>60% (++++))”. In the series with Vero cells, this compound gave an MNTD of 31.25 µM.

`CC(C)C1c2c(ccc3ccccc23)Oc2ccc3ccccc3c21` [DCR120, 2‐(propan‐2‐yl)‐13‐oxapentacyclo[12.8.0.0³,¹².0⁴,⁹.0¹⁷,²²]docosa‐1(14),3,5,7,9,11,15,17(22),18,20‐decaene]: in the series on CHIKV DRDE-07, the “% Cell viability” value worked out at 19.24% and the CPE entry is recorded as “++++ (>60% (++++))”. The same compound returned an MNTD in the series with Vero cells of 31.25 µM.

Turning to `c1cncc(C2c3c(ccc4ccccc34)Oc3ccc4ccccc4c32)c1` [DCR121, 3‐{13‐oxapentacyclo[12.8.0.0³,¹².0⁴,⁹.0¹⁷,²²]docosa‐1(14),3,5,7,9,11,15,17(22),18,20‐decaen‐2‐yl}pyridine], in the series on CHIKV DRDE-07, the “% Cell viability” value was determined as 8.03% and the CPE entry is reported as “++++ (>60% (++++))”. Besides, the MNTD in the series with Vero cells is on record as 31.25 µM.

For the compound `CC1(C)CC(=O)C2=C(C1)OC1=C(C(=O)CC(C)(C)C1)C2c1ccc(Cl)cc1` [DCR122, 9‐(4‐chlorophenyl)‐3,3,6,6‐tetramethyl‐2,3,4,5,6,7,8,9‐octahydro‐1H‐xanthene‐1,8‐dione], in the series with CHIKV DRDE-07, the “% Cell viability” value was 11.09% and the CPE entry is “++++ (>60% (++++))”. Also, the MNTD with Vero cells was 31.25 µM.
